Laboratory results as given in ChEMBL document CHEMBL6153149, “Cyclic Peptides Targeting Granzyme B: Potential Applications as PET Imaging Agents” (ACS Med Chem Lett, 2025).
pKd: −log10 of the molar value. Bridge positions count the residues as written; N and C are the ends. Square brackets hold non-standard residues; d marks the D form. Peptide text beside a SMILES is read from it. * marks the point of attachment. X1 = O=C(O)CN1CCN(CC(=O)O)CC(Cc2ccc(NC(=S)*)cc2)N(CC(=O)O)CC1; NMeF = CN[C@@H](Cc1ccccc1)C(=O)O

Biological target: Granzyme B (Homo sapiens, UniProt P10144)
Assay: Binding affinity to human granzyme B assessed as equilibrium dissociation constant by SPR method

Granzyme B, sequence (P10144 whole entry): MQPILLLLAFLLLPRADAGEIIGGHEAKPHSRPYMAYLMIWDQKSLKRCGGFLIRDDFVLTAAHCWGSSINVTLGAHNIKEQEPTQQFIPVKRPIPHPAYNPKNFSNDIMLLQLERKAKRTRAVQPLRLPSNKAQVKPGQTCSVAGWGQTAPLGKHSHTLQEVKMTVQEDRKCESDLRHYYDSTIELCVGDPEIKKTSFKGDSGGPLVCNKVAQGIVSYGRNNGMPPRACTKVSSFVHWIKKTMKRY

pKd: 8.96
Structure (SMILES): CC(C)[C@@H]1NC(=O)[C@H](CC(=O)O)NC(=O)[C@H](Cc2ccc(O)cc2)NC(=O)[C@H](Cc2ccc(O)cc2)NC(=O)[C@H](Cc2ccccc2)N(C)C(=O)[C@H](Cc2ccccc2)N(C)C(=O)[C@H](Cc2ccccc2)NC(=O)CSC[C@@H](C(=O)NCC(=O)NCC(=O)N[C@@H](CCCCNC(=S)Nc2ccc(CC3CN(CC(=O)O)CCN(CC(=O)O)CCN3CC(=O)O)cc2)C(N)=O)NC(=O)[C@H](Cc2c[nH]cn2)NC(=O)[C@H](Cc2ccccc2)N(C)C(=O)[C@H](Cc2ccc(O)cc2)NC(=O)[C@H](C(C)C)NC(=O)[C@H](CC(=O)O)NC(=O)[C@H](C(C)C)NC(=O)[C@H](CC(=O)O)NC1=O (stereo partly specified) ({CH2CO}-F[NMeF][NMeF]YYDVDVDVY[NMeF]HCGGK(X1)-NH2; thioether N-15)
